{
  "source": "paper PMC4038613",
  "about": "“A New Class of Multimerization Selective Inhibitors of HIV-1 Integrase” (PLoS Pathogens, 2014)",
  "key": {"HIV-1MJ4": {"tested_on": "HIV-1MJ4", "experiment": "Antiviral assay against HIV-1 clade C (pMJ4)", "format": "cell-based", "settings": "Human immunodeficiency virus 1, IN residue Ala125, read-out: IC50 for inhibition of HIV-1MJ4 replication"}, "HIV-1 expression": {"tested_on": "HIV-1 expression", "format": "cell-based", "settings": "for inhibition of HIV-1 expression: target cells"}, "HIV-1 IN [1]": {"target": "T1, HIV-1 IN (Human immunodeficiency virus type 1 group M subtype B, UniProt P12497)", "settings": "IC50 for inhibiting IN-LEDGF/p75 binding divided by EC50 for aberrant IN multimerization; fold", "protocol": "(§2) HTRF-based IN multimerization and IN-LEDGF/p75 binding assays were carried out as described previously [33]. The HTRF signal was recorded using a Perkin Elmer Multimode EnSpire plate reader."}, "HIV-1 virions": {"tested_on": "HIV-1 virions", "format": "cell-based", "settings": "virions produced in presence of 1 µM KF116"}, "HIV-1 [2]": {"tested_on": "HIV-1", "experiment": "Antiviral assay, early stage (inhibitor added to target cells)", "format": "cell-based", "settings": "called IC50"}, "IN in HIV-1 virions": {"target": "IN in HIV-1 virions (Human immunodeficiency virus type 1 group M subtype B, UniProt P12497)", "experiment": "Virion-associated IN cross-linking assay (BS3)", "format": "cell-based", "settings": "virions from cells treated with 1 µM KF116", "method": "(§1) (A) DLS analysis of KF116-induced multimerization of recombinant IN. […] The indicated volumes of cross-linked reaction products were resolved by SDS-PAGE and immunoblotted with HIV-1 IN antibody. The bands corresponding to IN “monomer”, “dimer”, and “higher order oligomers” are indicated.\nThe IN cross-linking assay was performed as described previously. Briefly, concentrated virions equivalent to 50 ng of HIV-1 p24 were cross-linked with 50 µM bis(sulfosuccinimidyl)suberate (BS^3) cross-linking reagent (Thermo Scientific). Subsequent cross-linked reaction products were quenched and resolved by SDS-PAGE (4–12%, Invitrogen) and immunoblotted."}, "IN-LEDGF/p75": {"target": "IN-LEDGF/p75 (Human immunodeficiency virus type 1 group M subtype B, UniProt P12497)", "experiment": "HTRF-based IN-LEDGF/p75 binding assay", "parameters": "species or system HIV-1", "protocol": "HTRF-based IN multimerization and IN-LEDGF/p75 binding assays were carried out as described previously [33]."}, "IN": {"target": "T2, IN (Human immunodeficiency virus type 1 group M subtype B, UniProt P12497)", "T2 construct": "DLS analysis of KF116-induced multimerization of recombinant IN", "experiment": "DLS assay of recombinant IN multimerization", "format": "biochemical, HIV-1", "method": "as §1\nDLS signals were recorded at room temperature using a Malvern Nano series zetasizer instrument."}, "[3]": {"tested_on": "VSV-G pseudotyped HIV-1-Luc in wild type HEK293T cells", "experiment": "microbe, parasite or virus in culture", "format": "cell-based", "settings": "Human immunodeficiency virus 1, HEK-293T"}, "[4]": {"tested_on": "LEDGF/p75-dependent HIV-1 integration", "experiment": "HIV-1 integration site distribution (ligation-mediated PCR, 454-pyrosequencing)", "format": "cell-based"}, "HIV-1 particles": {"tested_on": "HIV-1 particles", "experiment": "Virus production (Gag p24 ELISA) and virion protein processing (immunoblot)", "format": "cell-based", "settings": "1 µM KF116", "method": "HEK293T cells (2×10^6 cells/100 mm culture dish in 10 ml of complete medium) were transfected with HIV-1 provirus (pNL4-3) and cultured for 24 h to ensure expression of the provirus as described above. Next, the cells were treated with the indicated inhibitor or diluent control (DMSO) for 1 h. The culture supernatant was replaced with fresh complete medium containing either the inhibitor or DMSO, and cells were then cultured for another 24 h to allow for the production of HIV-1 particles in the presence of the inhibitor or diluent control. The virus containing cell-free supernatant was collected, filtered through 0.45 µm filter, and the amounts of viral particles produced was measured by HIV-1 Gag p24 ELISA (ZeptoMetrix) following manufacturer's protocol. Equivalent amounts of virions (∼5 µg p24 based on HIV-1 p24 ELISA) were concentrated over a 25% sucrose cushion by ultra-centrifugation at 28,000 rpm for 2 h at 4°C in SW41 rotor (Beckman). Pelleted virions were lysed in 100 µL RIPA buffer containing 50 mM Tris (pH 8.0), 150 mM NaCl, 0.1% SDS, 1% Triton-X, 1% deoxycholic acid, and 2 mM PMSF. Indicated amounts of concentrated virions were resolved by SDS-PAGE (4–12%, Invitrogen) and immunoblotted.\nHEK293T cells were transfected with HIV-1 provirus (pNL4-3). […] (A) Virus-containing cell-free supernatant were harvested and cell-free Gag was measured by HIV-1 Gag p24 ELISA. […]"}, "HIV-1 [5]": {"tested_on": "HIV-1", "experiment": "Antiviral assay, late stage (inhibitor added to producer cells)", "format": "cell-based", "settings": "Human immunodeficiency virus 1, virions prepared in presence of inhibitor, untreated target cells; called IC50", "protocol": "Results represent mean ± SD from three independent experiments.\nFor late stage experiments, the progeny virions were prepared in the presence of the indicated concentrations of the test inhibitor or diluent control (DMSO) and were then used to infect untreated target cells."}, "[6]": {"tested_on": "initiation of reverse transcription", "experiment": "tRNALys3 primer extension assay", "format": "biochemical, HIV-1", "settings": "virions produced with 1 µM KF116"}, "A128T IN HIV-1NL4-3": {"tested_on": "A128T IN HIV-1NL4-3", "experiment": "A128T HIV-1 infectivity in TZM-bl cells", "format": "cell-based", "settings": "particles produced in presence of inhibitor"}, "HIV-1 IN [7]": {"target": "T1, HIV-1 IN", "experiment": "biochemical", "protocol": "as §2"}, "in vitro": {"experiment": "in vitro", "format": "cell-based", "method": "The cytotoxcity assays were performed as described previously. The fitted dose-response curves were generated to calculate EC50 or CC50 using Origin software (OriginLab, Inc.)."}, "[8]": {"settings": "Target, 5 µM, *** P<0.001 vs DMSO"}, "[9]": {"settings": "target cells, 10 µM, *** P<0.001 vs DMSO"}},
  "note": "Like-named read-outs stand apart in the source and are kept apart here.",
  "data": [
    {"smiles": "Cc1nc(-c2nc3ccc(Cl)cc3[nH]2)c(C)c(-c2ccccc2)c1C(OC(C)(C)C)C(=O)O", "note": "(centres unmarked) [KF116]", "values": [
      {"measurement": "IC50", "setting": "HIV-1MJ4", "value": "127 ± 10", "unit": "nM"},
      {"measurement": "inhibition of HIV-1 expression", "setting": "HIV-1 expression; 5 µM", "value": "did not significantly inhibit HIV-1 expression"},
      {"measurement": "inhibition of HIV-1 expression", "setting": "HIV-1 expression; 10 µM", "value": "did not significantly inhibit HIV-1 expression"},
      {"measurement": "reduction in target cell HIV-1 expression", "setting": "HIV-1 expression; virus-producer cells treated with 0.1 µM", "value": "~77", "unit": "%"},
      {"measurement": "Selectivity ratio, IC50 IN-LEDGF/EC50 aberrant IN multimerization", "setting": "HIV-1 IN [1]", "value": 58.5},
      {"measurement": "eccentric cores among mature virions", "setting": "HIV-1 virions", "value": "~95", "unit": "%"},
      {"measurement": "EC50", "setting": "HIV-1 [2]; Human immunodeficiency virus 1, read-out: EC50, Early Stage, target cells, inhibitor added to target cells, untreated virions", "value": "50.9 ± 4.3", "unit": "µM"},
      {"measurement": "EC50", "setting": "HIV-1 [2]; read-out: EC50, Early Stage, target cells, inhibitor added to target cells, untreated virions", "value": "~50", "unit": "µM"},
      {"measurement": "IN multimerization in virions after BS3 cross-linking", "setting": "IN in HIV-1 virions", "value": "levels of IN dimers increased and new slower migrating bands were observed"},
      {"measurement": "IC50", "setting": "IN-LEDGF/p75", "value": "5.03 ± 0.36", "unit": "µM"},
      {"measurement": "DLS particle size diameter, 30 min", "setting": "IN; 1 µM KF116, 200 nM IN", "value": 1106, "unit": "nm"},
      {"measurement": "DLS particle size diameter, 120 min", "setting": "IN; 1 µM KF116, 200 nM IN", "value": 1281, "unit": "nm"},
      {"measurement": "DLS particle size diameter, immediately upon addition (2 minutes)", "setting": "IN; 1 µM KF116, 200 nM IN", "value": 142, "unit": "nm"},
      {"measurement": "DLS signal of inhibitor alone (self-aggregation in aqueous solution)", "setting": "IN; only KF116, no IN", "value": "no signal was recorded"},
      {"measurement": "EC50", "setting": "[3]; read-out: EC50, WT producer cells", "value": "~69", "unit": "nM"},
      {"measurement": "EC50", "setting": "[3]; read-out: EC50, WT target cells", "value": "> 50000", "unit": "nM"},
      {"measurement": "% in RefSeq (HIV-1 integration frequency)", "setting": "[4]; Producer, 100 nM", "value": 82.67, "unit": "%"},
      {"measurement": "% in known genes (HIV-1 integration frequency)", "setting": "[4]; Producer, 100 nM", "value": 83.79, "unit": "%"},
      {"measurement": "% in RefSeq (HIV-1 integration frequency)", "setting": "[4]; [8]", "value": 81.17, "unit": "%"},
      {"measurement": "% in known genes (HIV-1 integration frequency)", "setting": "[4]; [8]", "value": 82.38, "unit": "%"},
      {"measurement": "% in RefSeq (HIV-1 integration frequency)", "setting": "[4]; [9]", "value": 83.17, "unit": "%"},
      {"measurement": "% in known genes (HIV-1 integration frequency)", "setting": "[4]; [9]", "value": 84.31, "unit": "%"},
      {"measurement": "effect on HIV-1 Gag/Gag-Pol protein processing", "setting": "HIV-1 particles", "value": "did not affect"},
      {"measurement": "effect on virus particle production", "setting": "HIV-1 particles", "value": "did not affect"},
      {"measurement": "EC50", "setting": "HIV-1 [5]", "value": "~30", "unit": "nM"},
      {"measurement": "effect on annealing of tRNALys3 primer to viral RNA template (primer extension)", "setting": "[6]", "value": "did not significantly affect"},
      {"measurement": "A128T IN HIV-1NL4-3 replication in infected cells", "setting": "A128T IN HIV-1NL4-3", "value": "effectively impaired"},
      {"measurement": "EC50", "setting": "HIV-1 IN [7]", "value": "86 ± 6", "unit": "nM"},
      {"measurement": "CC50", "setting": "in vitro", "value": "> 100", "unit": "µM"}
    ]}
  ]
}
